What was measured:
[1] = tested on: A53T a-syn expressing HEK293 cells; test: Cell Titer-Glo cell viability, A53T a-syn expressing cells; format: cell-based, human; details: for cell viability effect of peptides: A53T a-syn, Supp Figure 1A; for Cell viability: A53T, MG132 10 μM, 72 h; for Effect of MIM motif peptides on cell viability in A53T a-syn expressing cells: Supp Figure 1H
Procedure, shortened: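 HEK293 cells (1.5 × 10^4 per well, triplicate) were infected with peptide-expressing lentivirus at MOI 5 or transfected with plasmid for 72 h at 37 °C, 5% CO2. Viability was then measured with Cell Titer-Glo, […].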

[2] = tested on: WT a-syn expressing HEK293 cells; test: Cell Titer-Glo cell viability, WT a-syn expressing cells; format: cell-based, human; details: WT alpha-synuclein; for Cell viability: MG132 10 μM, 72 h; for cell viability effect of peptides: Supp Figure 1A;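 for cell viability effect of peptides: measured without MG132 proteasome inhibitor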
Experimental: (§1) Oligonucleotides encoding the specific peptides were synthesized and individually cloned into the pLJM1 nGFP lentiviral vector. HEK293T cells were infected with individual constructs, and cell viability was assessed using Cell Titer-Glo luminescent assay (Promega) at 72 h post infection.
(§2) Cells were trypsinized from subconfluent cultures as described earlier, suspended in culture media, and then seeded into triplicate wells of a 96-well plate (100 µl/well) at a density of 1.5 × 10^4 cells per well with standard culture conditions of 5% CO2 at 37 °C. Cells were infected with lentivirus expressing peptide at a MOI of 5 for 72 h or transfected with plasmid for 72 h. Cell Titer-Glo reagent was added to each well (30 µL), according to the manufacturer’s protocol and […].

Parent HEK293 cells = test: Cell Titer-Glo cell viability, parent cells; format: cell-based, human; details: for Cell viability: MG132 10 μM, 72 h; for cell viability effect of peptides: Supp Figure 1A;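 for cell viability effect of peptides: measured without MG132 proteasome inhibitor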
Experimental: as §1, §2

WT a-syn oligomers = test: Luciferase PCA of WT a-syn oligomers; format: cell-based, human; details: for Oligomers %: WT oligomers, luciferase activity; for Effect on WT a-syn oligomers: luciferase PCA
Experimental: as §1
(§3) Tet-off HEK293 cells stably expressing split luciferase-a-syn constructs and tet-off parent HEK293 cell lines were maintained in DMEM supplemented with 10% FBS and 1% pen/strep/glutamine. […] Cells were trypsinized from subconfluent culture and seeded in a 96-well plate at a density of 15,000 cells per well. Cells were incubated overnight at 37 °C in 5% CO2. Cells were transfected with GFP-peptide plasmids. After 6 h of incubation, 20 µL of cell medium was transferred to a black flat-bottomed 96-well plate. Fifty microliters of Working solution (Pierce Gaussia-Firefly Luciferase Dual Assay Kit, Thermo Scientific, 16181) were added into each well containing cell medium. Immediately after adding the reagent, samples were read using a luminometer with a 480 nm filter.

A53T a-syn oligomers = test: Luciferase PCA of A53T a-syn oligomers; format: cell-based, human; details: for Effect on A53T a-syn oligomers: luciferase PCA, n=3
Experimental: as §1, §3

Flag-CHMP2B = test: Co-immunoprecipitation of Flag-CHMP2B with GFP-peptides; format: cell-based; details: n = 3
Experimental: HEK293T cells were co-transfected with Flag-tagged target protein, HA-tagged source protein, and GFP-tagged peptide or GFP. Cells were lysed 48 h after transfections with radioimmune precipitation assay buffer (50 mM Tris-HCl pH 7.4, 1% Nonidet P-40, 150 mM NaCl, 1 mM EDTA, 10 mM Na3VO4, 10 mM sodium pyrophosphate, 25 mM NaF, 1× protease inhibitor mixture (Sigma)) for 30 min at 4 °C and co-immunoprecipitated with Flag beads (Clontech). The resulting immunocomplexes were analyzed by immunoblot using the appropriate antibodies. Protein samples were separated using 4–20% Mini-PROTEAN Tris-glycine gels (Bio-Rad) transferred to PVDF membranes and blocked in 5% milk containing PBS-Tween-20 (0.1%) for 1 h. PVDF membranes were then incubated with specified primary antibodies followed by incubation with horseradish peroxidase-conjugated secondary antibodies (anti-mouse HRP-linked, Cell Signaling, catalog #7076, 1:5000; anti-rabbit HRP-linked, Cell Signaling, catalog #7074, 1:5000) and detected using enhanced chemiluminescence (GE Healthcare). HA antibodies were obtained from Santa Cruz (catalog #7392, 1:2000), GFP antibodies were purchased from Abcam (catalog #ab290, 1:2000), and Flag antibodies were purchased from Sigma (catalog #A8592, 1:1000).

A53T a-syn = A53T a-syn protein level in HEK293 cells by immunoblot; format: cell-based, human
Experimental: Infected or transfected cells were scraped from six-well dishes and lysed with lysis buffer (50 mM Tris-HCl pH 7.4, 1% Nonidet P-40, 150 mM NaCl, 1 mM EDTA, 1× protease inhibitor mixture (Sigma)) for 30 min at 4 °C. The insoluble pellet was removed following a 10,000 rpm spin for 5 min at 4 °C. Lysates were analyzed by SDS-PAGE/immunoblot using 4–20% Mini-PROTEAN Tris-glycine gels (Bio-Rad), transferred to polyvinylidene fluoride (PVDF) membranes, and blocked in 5% milk containing PBS-Tween-20 (0.1%) for 1 h. PVDF membranes were then incubated with specified primary antibodies followed by incubation with horseradish peroxidase-conjugated secondary antibodies (anti-mouse HRP-linked, Cell Signaling, catalog #7076, 1:5000; anti-rabbit HRP-linked, Cell Signaling, catalog #7074, 1:5000) and detected using enhanced chemiluminescence (GE Healthcare). Anti-a-syn antibody (clone 42) was obtained from BD Biosciences (catalog #610787, 1:1000). Anti-LAMP1 antibody was obtained from Abcam (catalog #ab24170, 1:500). Anti-beta-actin antibody was obtained from Cell Signaling (13E5) (catalog #4970, 1:1000). Anti-CD63 antibody was obtained from R&D Systems (catalog #MAB50482-SP, 1:1000).

Row | Substance | cell viability effect of peptides ([1]; replicate 1) | cell viability effect of peptides ([1]; replicate 2) | cell viability effect of peptides ([1]; replicate 3) | Cell viability ([1]; replicate 1) | Cell viability ([1]; replicate 2) | Cell viability ([1]; replicate 3) | Effect of MIM motif peptides on cell viability in A53T a-syn expressing cells ([1]; replicate 1) | Effect of MIM motif peptides on cell viability in A53T a-syn expressing cells ([1]; replicate 2) | Effect of MIM motif peptides on cell viability in A53T a-syn expressing cells ([1]; replicate 3) | Cell viability ([2]; replicate 1) | Cell viability ([2]; replicate 2) | Cell viability ([2]; replicate 3) | cell viability effect of peptides ([2]; replicate 1) | cell viability effect of peptides ([2]; replicate 2) | cell viability effect of peptides ([2]; replicate 3) | Cell viability (Parent HEK293 cells; replicate 1) | Cell viability (Parent HEK293 cells; replicate 2) | Cell viability (Parent HEK293 cells; replicate 3) | cell viability effect of peptides (Parent HEK293 cells; replicate 1) | cell viability effect of peptides (Parent HEK293 cells; replicate 2) | further results
1 | IPIQLKA [PDpep1, initial screen hit peptide IPIQLKA] | 12800 | 14040 | 13200 | 5500 | 5200 | 5000 | 5748 | 5350 | 5562 | 3500 | 3600 | 3700 | 12400 | 12300 | 12500 | 3800 | 3900 | 4100 | 12300 | 12100 | cell viability effect of peptides (Parent HEK293 cells; replicate 3): 12500; Oligomers % (WT a-syn oligomers; column 1): 91.6523%; Oligomers % (WT a-syn oligomers; column 2): 79.1738%; Oligomers % (WT a-syn oligomers; column 3): 70.9983%; Oligomers % (WT a-syn oligomers; column 4): 79.1738%; Oligomers % (WT a-syn oligomers; column 5): 65.4045%; Effect on WT a-syn oligomers (WT a-syn oligomers): significant reduction in a-syn oligomers; Effect on A53T a-syn oligomers (A53T a-syn oligomers): significant reduction in A53T a-syn oligomers; A53T a-syn oligomers as measured by luciferase activity (A53T a-syn oligomers; replicate 1): 221224; A53T a-syn oligomers as measured by luciferase activity (A53T a-syn oligomers; replicate 2): 258154; A53T a-syn oligomers as measured by luciferase activity (A53T a-syn oligomers; replicate 3): 261396; Interaction with CHMP2B (Flag-CHMP2B): interacted with Flag-CHMP2B; Effect on A53T a-syn protein level (A53T a-syn): reduction in a-syn
2 | DEEIERQLKALG [PDpep1.3] | 15000 | 15800 | 15200 | 8500 | 9100 | 9000 | 8764 | 8800 | 8162 | 5800 | 5300 | 6000 | 14300 | 13800 | 14100 | 4900 | 4200 | 4500 | 13700 | 13400 | Effect on cell survival/viability ([1]; A53T a-syn cells): most prominent effects on cell survival; cell viability effect of peptides (Parent HEK293 cells; replicate 3): 13100; Oligomers % (WT a-syn oligomers; column 1): 99.8279%; Oligomers % (WT a-syn oligomers; column 2): 83.0465%; Oligomers % (WT a-syn oligomers; column 3): 73.1497%; Oligomers % (WT a-syn oligomers; column 4): 78.3132%; Oligomers % (WT a-syn oligomers; column 5): 63.6833%; Effect on WT a-syn oligomers (WT a-syn oligomers): significant reduction in a-syn oligomers; Effect on A53T a-syn oligomers (A53T a-syn oligomers): significant reduction in A53T a-syn oligomers; A53T a-syn oligomers as measured by luciferase activity (A53T a-syn oligomers; replicate 1): 222198; A53T a-syn oligomers as measured by luciferase activity (A53T a-syn oligomers; replicate 2): 195592; A53T a-syn oligomers as measured by luciferase activity (A53T a-syn oligomers; replicate 3): 221562; Interaction with CHMP2B (Flag-CHMP2B): interacted with Flag-CHMP2B; Effect on A53T a-syn protein level (A53T a-syn): reduction in a-syn
